Data as given in patent US7229997B2, “Compounds and their use” (Biovitrum AB, priority 2002, dated 2007).
Read-outs that look alike come from different tables or passages of the source.

Target: T1, human 5-HT2c receptor (Homo sapiens, UniProt P28335)
T1 construct: expressed in transfected cells
T1 sequence (P28335 33-458): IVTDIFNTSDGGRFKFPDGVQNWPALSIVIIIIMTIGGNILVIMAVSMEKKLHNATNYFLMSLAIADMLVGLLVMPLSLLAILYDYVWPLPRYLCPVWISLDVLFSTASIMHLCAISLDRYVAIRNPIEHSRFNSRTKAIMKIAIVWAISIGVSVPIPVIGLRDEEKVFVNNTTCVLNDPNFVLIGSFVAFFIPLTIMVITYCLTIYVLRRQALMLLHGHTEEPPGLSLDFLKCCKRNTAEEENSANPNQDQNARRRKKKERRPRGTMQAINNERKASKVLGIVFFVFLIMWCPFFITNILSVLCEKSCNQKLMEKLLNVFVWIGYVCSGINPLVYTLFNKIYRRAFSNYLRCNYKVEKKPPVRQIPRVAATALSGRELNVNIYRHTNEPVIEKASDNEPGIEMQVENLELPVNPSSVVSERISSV
Assay: 5-HT2c receptor affinity assay (displacement of 3H-labelled 5-HT, Scintillation Proximity Assay)
Assay type: binding
Protocol: The 5-HT2c receptor affinity of compounds in the Examples was determined in competition experiments, where the ability of each compound in serial dilution to displace ^3H-labelledlabeled 5-HT, bound to membranes prepared from a transfected HEK293 cell line stably expressing the human 5-HT2c receptor protein, was monitored by Scintillation Proximity Assay technology. Non-specific binding was defined using 5 μM mianserin.

[1] = membranes from transfected HEK293 cells expressing human 5-HT2c receptor, 3H-5-HT radioligand, read-out: 5-HT2C receptor Affinity Ki

Structure (SMILES) | Ki | Ki [1]
FC(F)(F)c1ccc(N2CCNCC2)nc1OCc1ccco1 [Example 25, 1-[6-(Furan-2-ylmethoxy)-5-trifluoromethyl-pyridin-2-yl]-piperazine, acetate] | 14 nM | 
CCSc1nc(N2CCNCC2)ccc1C(F)(F)F [Example 17, 1-(6-Ethylsulfanyl-5-trifluoromethyl-pyridin-2-yl)-piperazine, acetate] | 15 nM | 
C[C@H]1CN(c2ccc(C(F)(F)F)c(SCc3ccccc3Cl)n2)CCN1 [Example 38, 1-[6-(2-Chloro-benzylsulfanyl)-5-trifluoromethyl-pyridin-2-yl]-3-(S)-methyl-piperazine, acetate] |  | 6 nM
FC(F)(F)c1ccc(N2CCNCC2)nc1OCCOc1cccc2cccnc12 [Example 21, 8-[2-(6-Piperazin-1-yl-3-trifluoromethyl-pyridin-2-yloxy)-ethoxyl-quinoline, acetate] |  | 246 nM
CCSc1nc(N2CCNC[C@H]2C)ccc1C(F)(F)F [Example 30, 1-(6-Ethylsulfanyl-5-trifluoromethyl-pyridin-2-yl)-2-(R)-methyl-piperazine, acetate] | 24 nM | 
FC(F)(F)c1ccc(N2CCNCC2)nc1SCc1ccccc1Cl [Example 15, 1-[6-(2-Chloro-benzylsulfanyl)-5-trifluoromethyl-pyridin-2-yl]-piperazine, acetate] | 1 nM | 
COc1ccc(F)cc1COc1nc(N2CCNCC2)ccc1C(F)(F)F [Example 36, 1-[6-(5-Fluoro-2-methoxy-benzyloxy)-5-trifluoromethyl-pyridin-2-yl]-piperazine, acetate] | 5 nM | 
